Activity calls are given as the source filed them. No cut-off for these calls is given here.
Columns and labels:
RAW264 = experiment: Inhibition of LPS-induced NO production in mouse RAW264 cells after 24 hrs; format: functional, cell-based
[1] = Cytotoxicity against mouse RAW264 cells after 2 hrs by WST reagent-based microplate reader analysis; format: cell-based; conditions: raw264, 2 h
HEK-293T = experiment: Cytotoxicity against human 293T cells assessed as cell viability by dual-luciferase reporter assay; format: cell-based
[2] = Inhibition of LPS-induced NF-kappaB activation in human 293T cells incubated for 30 mins followed by treated with LPS for 6 hrs by dual-luciferase reporter assay; format: cell-based; conditions: HEK-293T

With `C=C1C(=O)[C@@]23[C@@H]4OC(C)(C)O[C@@H]2C[C@@H]2[C@@](C)(CO)CCC[C@@]2(C)[C@@H]3C[C@H](OC(C)=O)[C@@H]14` the inhibition (RAW264) was “Active”, the Activity [1] was “Toxic” and the IC50 (HEK-293T) was 2390 nM. For the same compound, the IC50 [2] was 1530 nM.

For `C=C1C(=O)[C@@]23[C@@H]4OC(C)(C)O[C@@H]2C[C@@H]2[C@@](C)(COC(=O)C(F)(F)F)CCC[C@@]2(C)[C@@H]3C[C@H](OC(=O)C(F)(F)F)[C@@H]14`, the inhibition (RAW264) was “Active” and the Activity [1] was “Toxic”.

With `C=C1C(=O)[C@@]23[C@H](O)C[C@@H]4[C@@](C)(CO)CCC[C@@]4(C)[C@@H]2C[C@H](O)[C@@H]1[C@H]3O` [RABDOKUNMIN C] the inhibition (RAW264) was “Active” and the Activity [1] was “Toxic”.

For `CC1=C(O)C(=O)C=C2C1=CC=C1[C@@]2(C)CC[C@@]2(C)[C@@H]3C[C@](C)(C(=O)O)CC[C@]3(C)CC[C@]12C` [CELASTROL], the inhibition (RAW264) was “Active”, the Activity [1] was “Toxic” and the IC50 (HEK-293T) was 670 nM. The IC50 [2] was 170 nM.

In the case of `C=C1C(=O)[C@@]23[C@@H]4OC(C)(C)O[C@@H]2C[C@@H]2[C@@](C)(CO)CCC[C@@]2(C)[C@@H]3C[C@H](O)[C@@H]14`, the inhibition (RAW264) is reported as “Active” and the Activity [1] is reported as “Toxic”.

For `C=C1C(=O)[C@@]23[C@H](O)C[C@@H]4[C@@](C)(COC(C)=O)CCC[C@@]4(C)[C@@H]2C[C@H](O)[C@@H]1[C@H]3O` [ALBOPILOSIN A], the inhibition (RAW264) was “Active” and the Activity [1] was “Toxic”.

Work on `C=C1C(=O)[C@@]23[C@H](O)C[C@@H]4[C@@](C)(CO)CCC[C@@]4(C)[C@@H]2C[C@H](OC(=O)CCC)[C@@H]1[C@H]3O` yielded an IC50 (HEK-293T) of 1910 nM and an IC50 [2] of 1680 nM.

With `C=C1C(=O)[C@@]23[C@H](O)C[C@H]4[C@@](C)(CCC[C@]4(C)C(=O)O)[C@@H]2C[C@H](OC(C)=O)[C@@H]1[C@H]3O` the inhibition (RAW264) was “Active” and the Activity [1] was “Toxic”.

In the case of `C=C1C(=O)[C@@]23[C@H](O)C[C@@H]4[C@@](C)(COC(C)=O)CCC[C@@]4(C)[C@@H]2C[C@H](OC(C)=O)[C@@H]1[C@H]3O`, the inhibition (RAW264) is reported as “Active”, the Activity [1] is reported as “Toxic” and the IC50 (HEK-293T) is reported as 2920 nM. For the same compound, the IC50 [2] was 2000 nM.

With `C=C1C(=O)[C@@]23[C@@H]4OC(C)(C)O[C@@H]2C[C@@H]2[C@@](C)(COC(C)=O)CCC[C@@]2(C)[C@@H]3C[C@H](O)[C@@H]14` the inhibition (RAW264) was “Active” and the Activity [1] was “Toxic”.

In the case of `C=C1C(=O)[C@@]23[C@H](O)C[C@@H]4[C@@](C)(COC(C)=O)CCC[C@@]4(C)[C@@H]2C=C[C@@H]1[C@H]3O`, the inhibition (RAW264) is reported as “Active”, the Activity [1] is reported as “Toxic” and the IC50 (HEK-293T) is reported as greater than 5000 nM. The IC50 [2] was 1470 nM.

With `C=C1C(=O)[C@@]23[C@H](O)C[C@@H]4[C@@](C)(COC(=O)CC)CCC[C@@]4(C)[C@@H]2C[C@H](OC(=O)CC)[C@@H]1[C@H]3O` the IC50 (HEK-293T) was greater than 5000 nM and the IC50 [2] was greater than 5000 nM.

With `C=C1C(=O)[C@@]23[C@H](O)C[C@H]4[C@@](C)(CCC[C@]4(C)C=O)[C@@H]2C[C@H](OC(C)=O)[C@@H]1[C@H]3O` the inhibition (RAW264) was “Active” and the Activity [1] was “Toxic”.

In the case of `C=C1C(=O)[C@@]23[C@@H]4OC(C)(C)O[C@@H]2C[C@@H]2[C@@](C)(COC(C)=O)CCC[C@@]2(C)[C@@H]3C[C@H](OC(C)=O)[C@@H]14`, the inhibition (RAW264) is reported as “Active”, the Activity [1] is reported as “Toxic” and the IC50 (HEK-293T) is reported as 1800 nM. The IC50 [2] was 2010 nM.

`C=C1C(=O)[C@]23[C@H](O)[C@H]1CC[C@H]2[C@@]12CO[C@]3(O)[C@@H](O)[C@@H]1C(C)(C)CC[C@@H]2O` [ORIDONIN] showed an IC50 (HEK-293T) greater than 5000 nM and an IC50 [2] of 4440 nM.

In the case of `C=C1C(=O)[C@@]23[C@H](O)C[C@@H]4[C@@](C)(CO)CCC[C@@]4(C)[C@@H]2C=C[C@@H]1[C@H]3O`, the inhibition (RAW264) is reported as “Active” and the Activity [1] is reported as “Toxic”.

For `C[C@H]1C(=O)[C@@]23[C@H](O)C[C@@H]4[C@@](C)(CO)CCC[C@@]4(C)[C@@H]2C[C@H](O)[C@@H]1[C@H]3O`, the inhibition (RAW264) was “Active” and the Activity [1] was “Toxic”.

In the case of `C=C1C(=O)[C@@]23[C@@H]4OC(C)(C)O[C@@H]2C[C@@H]2[C@@](C)(CO)CCC[C@@]2(C)[C@@H]3C=C[C@@H]14`, the inhibition (RAW264) is reported as “Active” and the Activity [1] is reported as “Toxic”.

For `C=C1C(=O)[C@@]23[C@H](O)C[C@@H]4[C@@](C)(COC(=O)CCC)CCC[C@@]4(C)[C@@H]2C[C@H](OC(=O)CCC)[C@@H]1[C@H]3O`, the IC50 (HEK-293T) was 2300 nM and the IC50 [2] was 2970 nM.

With `C=C1C(=O)[C@@]23[C@H](O)C[C@@H]4[C@@](C)(CO)CCC[C@@]4(C)[C@@H]2C[C@H](OC(C)=O)[C@@H]1[C@H]3O` the inhibition (RAW264) was “Active” and the Activity [1] was “Toxic”.
